Results from the Kinase Knowledgebase extract (Sharma et al. 2016).

molecular target: MAPK14 (human) (UniProt Q16539); assay: Assesment of MAPK14 Kinase Activity
Sequence (Q16539 whole entry, looked up): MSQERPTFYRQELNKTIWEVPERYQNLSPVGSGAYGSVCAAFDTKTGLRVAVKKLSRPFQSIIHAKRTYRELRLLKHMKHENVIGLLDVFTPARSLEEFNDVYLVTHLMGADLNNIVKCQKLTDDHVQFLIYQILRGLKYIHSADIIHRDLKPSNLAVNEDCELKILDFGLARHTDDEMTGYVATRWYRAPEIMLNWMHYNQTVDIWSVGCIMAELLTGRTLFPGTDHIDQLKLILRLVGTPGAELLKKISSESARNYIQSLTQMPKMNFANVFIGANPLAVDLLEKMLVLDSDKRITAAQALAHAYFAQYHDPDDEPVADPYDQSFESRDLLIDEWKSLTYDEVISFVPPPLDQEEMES

EC50, ≤ 10 µM:
CC(C)Cn1ncc2cc(Oc3ccc(F)cc3F)c(C(=O)N[C@H]3CCN(CCO)C3=O)cc21
CC(C)(F)Cn1ncc2cc(Oc3ccc(F)cc3F)c(C(=O)N[C@H]3CCCNC3=O)cc21
CC(C)Cn1ncc2cc(Oc3ccc(F)cc3F)c(C(=O)N[C@H]3CCN(C)C3=O)cc21
CC(C)Cn1ncc2cc(Oc3ccc(F)cc3F)c(C(=O)N[C@H]3CCCN(CCO)C3=O)cc21
CC(C)Cn1ncc2cc(Oc3ccc(F)cc3F)c(C(=O)Nc3ccc[nH]c3=O)cc21
CC(C)(F)Cn1ncc2cc(Oc3ccc(F)cc3F)c(C(=O)N[C@H]3CCCCNC3=O)cc21
CC(C)(F)Cn1ncc2cc(Oc3ccc(F)cc3F)c(C(=O)N[C@H]3CCNC3=O)cc21
CC(C)Cn1ncc2cc(Oc3ccc(F)cc3F)c(C(=O)N[C@H]3CCCCN(CCO)C3=O)cc21
CC(C)Cn1ncc2cc(Oc3ccc(F)cc3F)c(C(=O)N[C@H]3CCNC3=O)cc21
CC(C)(O)Cn1ncc2cc(Oc3ccc(F)cc3F)c(C(=O)N[C@H]3CCNC3=O)cc21
CC(C)Cn1ncc2cc(Oc3ccc(F)cc3F)c(C(=O)N[C@H]3CCCCNC3=O)cc21
CC(C)Cn1ncc2cc(Oc3ccc(F)cc3F)c(C(=O)N[C@H]3CCCN(C)C3=O)cc21
CC(C)Cn1ncc2cc(Oc3ccc(F)cc3F)c(C(=O)N[C@H]3CCCCN(C)C3=O)cc21
CC(C)(F)Cn1ncc2cc(Oc3ccc(F)cc3F)c(C(=O)ON3C(=O)CCC3=O)cc21
CC(C)Cn1ncc2cc(Oc3ccc(F)cc3F)c(C(=O)N[C@H]3CCCNC3=O)cc21
